Experimental data published in US12201723B2, “Combined pharmaceutical formulation comprising gemcitabine-containing liposome composition and immune checkpoint inhibitor” (FUJIFILM Corporation, priority 2018, dated 2025).

Tests used:
[1] = tested on: intratumoral immune cells (CD8-positive T cells, M1 and M2 macrophages) of EMT6 tumors; assay: Changes in immune cell composition in tumor in tumor-bearing model mouse with subcutaneous transplantation of EMT6 (flow cytometry); type: in vivo; details: tumors excised Days 16 and 17 after start; Gem 240 mg/kg or Lipo 4 mg/kg 3 times; CTLA-4 10 mg/kg or PBS 5 times
From the text: It is said that a high percentage of CD8-positive T cells in the tumor and a high ratio of M1 macrophages compared to M2 macrophages result in an antitumor environment (reference: J Clin Invest. 2012; 122(3); 787-95).
Tumors were excised on Days 16 and 17 after the start of administration and used for analysis of intratumoral immune cells.
The excised tumor was made into a cell-dispersed state using Tumor Dissociation Kit, mouse (catalog number 130-096-730, manufactured by Miltenyi Biotec GmbH), and intratumoral immune cells were isolated using CD45 (TIL) MicroBeads (catalog number 130-110-618, manufactured by Miltenyi Biotec GmbH). Dead cells were stained using LIVE/DEAD (trademark) Fixable Yellow Dead Cell Stain Kit (catalog number L34968, manufactured by Invitrogen Corporation), and various immune cell markers were stained using the following fluorescently labeled antibodies. […] The samples were analyzed using a flow cytometer (Attune NxT, manufactured by Invitrogen Corporation). CD8-positive T cells (CD3-positive, CD8-positive), M1 macrophages (CD11b-positive, F4/80-positive, MHC Class II-positive, CD206-negative), and M2 macrophages (CD11b-positive, F4/80-positive, MHC Class II-negative, CD206-positive) were identified, and the percentage of each cell group was calculated.

[2] = tested on: EMT6 tumor cells; assay: Drug efficacy test with combined use of PD-L1 in tumor-bearing model mouse with subcutaneous transplantation of EMT6
From the text: An anti-PD-L1 antibody (hereinafter, also referred to as PD-L1), gemcitabine (hereinafter, also referred to as Gem), and gemcitabine-containing liposome composition (hereinafter, also referred to as liposome composition according to the embodiment of the present invention) were used as test substances. Gemcitabine hydrochloride (manufactured by Teva Pharmaceutical Industries Ltd.) dissolved in physiological saline was used as Gem. The liposome composition according to the embodiment of the present invention was diluted with a 5% glucose solution for injection (hereinafter, also referred to as 5% Glu; 0.05 g/mL) prior to use.
3×10^6 EMT6 cells, which are a mouse breast cancer cell line, were subcutaneously transplanted into the flank of female Balb mice to form subcutaneous tumors. Using the tumor volume as an index, inhibitory effects of combined administration of PD-L1 and Gem and combined administration of PD-L1 and the liposome composition according to the embodiment of the present invention on subcutaneous tumors were evaluated.
PD-L1 and an isotype control antibody thereof (hereinafter, also referred to as Iso antibody) were intraperitoneally administered twice a week for a total of 3 weeks, and Gem, the liposome composition according to the embodiment of the present invention, and a solvent therefor (5% Glu) were administered once a week by tail vein administration for a total of 3 weeks.
After the 3-week administration was completed, the drug was discontinued, and the tumor volume measurement was continued for 2 weeks. Test subjects with a tumor volume of more than 10% of body weight were euthanized during the test, and drug efficacy analysis was carried out based on the survival rate (tumor-free survival %).
Group configuration was set to a combination of 5% Glu and Iso antibody (10 mg/kg) for Group 1, a combination of 5% Glu and PD-L1 (10 mg/kg) for Group 2, a combination of Gem (240 mg/kg) and Iso antibody (10 mg/kg) for Group 3, a combination of Gem (240 mg/kg) and PD-L1 (10 mg/kg) for Group 4, a combination of the liposome composition according to the embodiment of the present invention (1 mg/kg) and Iso antibody (10 mg/kg) for Group 5, a combination of the liposome composition according to the embodiment of the present invention (1 mg/kg) and PD-L1 (10 mg/kg) for Group 6, a combination of the liposome composition according to the embodiment of the present invention (4 mg/kg) and Iso antibody (10 mg/kg) for Group 7, and a combination of the liposome composition according to the embodiment of the present invention (4 mg/kg) and PD-L1 (10 mg/kg) for Group 8.
(§1) In addition, Lipo (1) and Lipo (4) mean that the liposome composition according to the embodiment of the present invention was administered to a subject at a dose of 1 mg/kg and a dose of 4 mg/kg, respectively.
As a statistical analysis of an effect of prolonging the survival time, a log-rank test was carried out, and a p value of less than 5% between the groups was determined to have a statistically significant difference.

[3] = tested on: EMT6 tumor cells; assay: Drug efficacy test with combined use of PD-1 in tumor-bearing model mouse with subcutaneous transplantation of EMT6; type: in vivo
From the text: As the test substance, the same substance as in Example 1 was used.
Changes in tumor volume are shown in FIG. 12 (mean value) and FIGS. 13 to 20 (on the basis of an individual). […] In Table 5 and Table 6, “Number of test subjects in complete remission” means that the tumor volume was zero.

[4] = tested on: EMT6 tumor cells; assay: Drug efficacy test with combined use of anti-CTLA-4 antibody in tumor-bearing model mouse with subcutaneous transplantation of EMT6
Experimental: The anti-CTLA-4 antibody (hereinafter, also referred to as CTLA-4), Gem, and the liposome composition according to the embodiment of the present invention were used as test substances. […] The liposome composition according to the embodiment of the present invention was diluted with 5% Glu prior to use.
1.7×10^6 EMT6 cells, which are a mouse breast cancer cell line, were subcutaneously transplanted into the flank of female Balb/c mice to form subcutaneous tumors. Using the tumor volume as an index, inhibitory effects of combined administration of CTLA-4 and Gem and combined administration of CTLA-4 and the liposome composition according to the embodiment of the present invention on subcutaneous tumors were evaluated.
CTLA-4 and a solvent therefor (PBS) were intraperitoneally administered twice a week for a total of 3 weeks, and Gem, the liposome composition according to the embodiment of the present invention, and a solvent therefor (5% Glu) were administered once a week by tail vein administration for a total of 3 weeks.
After the 3-week administration was completed, the drug was discontinued, and the tumor volume measurement was continued for 4 weeks. Test subjects with a tumor volume of more than 10% of body weight were euthanized during the test, and drug efficacy analysis was carried out based on the survival rate (tumor-free survival %).
Group configuration was set to a combination of 5% Glu and PBS for Group 1, a combination of 5% Glu and CTLA-4 (10 mg/kg) for Group 2, a combination of Gem (240 mg/kg) and PBS for Group 3, a combination of Gem (240 mg/kg) and CTLA-4 (10 mg/kg) for Group 4, a combination of the liposome composition according to the embodiment of the present invention (1 mg/kg) and PBS for Group 5, a combination of the liposome composition according to the embodiment of the present invention (1 mg/kg) and CTLA-4 (10 mg/kg) for Group 6, a combination of the liposome composition according to the embodiment of the present invention (4 mg/kg) and PBS for Group 7, and a combination of the liposome composition according to the embodiment of the present invention (4 mg/kg) and CTLA-4 (10 mg/kg) for Group 8.
as §1
The survival rate (tumor-free survival %) in a case where a test subject with a tumor volume of more than 10% of body weight was euthanized was calculated, and the results of a survival curve by the Kaplan-Meier method are shown in FIG. 29. […] As a statistical analysis of an effect of prolonging the survival time, a log-rank test was carried out, and a p value of less than 5% between the groups was determined to have a statistically significant difference. Graghpad Prism version 5.03 was used for the calculation of median survival calculated from the survival curve by Kaplan-Meier method and the statistical analysis.

[5] = Gem 240 mg/kg or Lipo 1 mg/kg, CTLA-4 10 mg/kg or PBS

Nc1ccn([C@@H]2O[C@H](CO)[C@@H](O)C2(F)F)c(=O)n1 [Gem, (+)-2′-deoxy-2′,2′-difluorocytidine]
percentage of CD8-positive T cells in the tumor (in words) [1]: not changed
tumor growth inhibitory effect (in words) ([2]; Gem 240 mg/kg or Lipo 1 mg/kg, PD-L1 or Iso antibody 10 mg/kg): tumor growth could not be stopped
Median survival ([2]; Kaplan-Meier, euthanasia at tumor volume >10% of body weight, Gem 240 mg/kg or Lipo 1 mg/kg, PD-L1 or Iso antibody 10 mg/kg): 20
Complete remission rate (%) ([2]; by day 41, Gem 240 mg/kg or Lipo 1 mg/kg, PD-L1 or Iso antibody 10 mg/kg): 0%
Number of test subjects in complete remission ([2]; by post-transplantation day 41, 8 per group, Gem 240 mg/kg or Lipo 1 mg/kg once/3W tail, PD-L1 or Iso antibody 10 mg/kg twice/3W i.p.): 0
test subjects subjected to euthanasia by the day of test termination ([2]; post-transplantation day 41, Gem 240 mg/kg or Lipo 1 mg/kg, PD-L1 or Iso antibody 10 mg/kg): all test subjects
effect of prolonging the survival time (in words) ([2]; single agents vs Group 1, combinations vs same drug + Iso antibody, Gem 240 mg/kg or Lipo 1 mg/kg, PD-L1 10 mg/kg): No significant prolongation
tumor growth inhibitory effect (in words) ([3]; Gem 240 mg/kg or Lipo 2 mg/kg, PD-1 10 mg/kg or PBS): tumor growth could not be stopped
Complete remission rate (%) ([3]; by day 41, Gem 240 mg/kg or Lipo 2 mg/kg, PD-1 10 mg/kg or PBS): 0%
Number of test subjects in complete remission ([3]; by post-transplantation day 41, 8 per group, Gem 240 mg/kg or Lipo 2 mg/kg once/3W tail, PD-1 10 mg/kg or PBS twice/3W i.p.): 0
Tumor volume mean value (mm^3) ([3]; day 6 after transplantation, Gem 240 mg/kg or Lipo 2 mg/kg, PD-1 10 mg/kg or PBS): 432 mm^3
Tumor volume mean value (mm^3) ([3]; day 9 after transplantation, Gem 240 mg/kg or Lipo 2 mg/kg, PD-1 10 mg/kg or PBS): 473 mm^3
Tumor volume mean value (mm^3) ([3]; day 13 after transplantation, Gem 240 mg/kg or Lipo 2 mg/kg, PD-1 10 mg/kg or PBS): 1129 mm^3
Tumor volume mean value (mm^3) ([3]; day 16 after transplantation, Gem 240 mg/kg or Lipo 2 mg/kg, PD-1 10 mg/kg or PBS): 1228 mm^3
Tumor volume mean value (mm^3) ([3]; day 20 after transplantation, Gem 240 mg/kg or Lipo 2 mg/kg, PD-1 10 mg/kg or PBS): 2265 mm^3
Tumor volume mean value (mm^3) ([3]; day 23 after transplantation, Gem 240 mg/kg or Lipo 2 mg/kg, PD-1 10 mg/kg or PBS): 3521 mm^3
animals subjected to euthanasia by the day of test termination ([3]; post-transplantation day 41, Gem 240 mg/kg or Lipo 2 mg/kg, PD-1 10 mg/kg or PBS): all animals
Median survival Percentage (control group / comparative group) [4, 5]: 1.40
tumor growth inhibitory effect (in words) [4, 5]: tumor growth could not be stopped
Median survival ([4]; Kaplan-Meier, euthanasia at tumor volume >10% of body weight, Gem 240 mg/kg or Lipo 1 mg/kg, CTLA-4 10 mg/kg or PBS): 29.5
Complete remission rate (%) ([4]; by day 52, Gem 240 mg/kg or Lipo 1 mg/kg, CTLA-4 10 mg/kg or PBS): 0%
Number of test subjects in complete remission ([4]; by post-transplantation day 52, 8 per group, Gem 240 mg/kg or Lipo 1 mg/kg once/3W tail, CTLA-4 10 mg/kg or PBS twice/3W i.p.): 0
test subjects subjected to euthanasia by the day of test termination ([4]; post-transplantation day 52, out of 8, Gem 240 mg/kg or Lipo 1 mg/kg, CTLA-4 10 mg/kg or PBS): All test subjects
Log-rank Test Determination ([4]; single agents vs 5% Glu + PBS, combinations vs same drug + PBS, Gem 240 mg/kg or Lipo 1 mg/kg, CTLA-4 10 mg/kg): b (“b” indicates p<0.001)
effect of prolonging the survival time (in words) ([4]; single agents vs Group 1, combinations vs same drug + PBS, Gem 240 mg/kg or Lipo 1 mg/kg, CTLA-4 10 mg/kg): statistically significant effect
